Values of other authors, collected in US20150174160A1, “METHODS FOR TREATING, DIAGNOSING AND/OR MONITORING PROGRESSION OF OXO ASSOCIATED STATES” (priority 2012, published 2015).

Settings: for 2 years in humans

safe dose: up to 2 grams daily
Compound: O=C(O)CCCCC1CCSS1 (stereo not drawn) [ALA, alpha-lipoic acid]
